Test results reported in ChEMBL document CHEMBL1159365, “Sesquiterpenoids from Artemisia gilvescens and an anti-MRSA compound” (J Nat Prod, 2003).
Converted amounts (≈) assume the structure as drawn.

Tested on: Staphylococcus aureus
Test: Antimicrobial activity against methicillin-resistant Staphylococcus aureus after 20 hrs
Type: functional

Work on `CC1=CC(=O)c2c(C)cc3oc(=O)c(C)c-3cc21` yielded an MIC of 1.95 µg/mL (≈ 8.12 µM).

Tested on: HCT-116
Test: Cytotoxicity against human HCT116 cells by MTT assay
Type: functional, cell-based

`C=C1C(=O)O[C@H]([C@H]2C(=O)C=C[C@@]2(C)O)[C@H]1CCC(C)=O` and `C=C1C(=O)O[C@H]([C@@H]2C(=O)C=C[C@@]2(C)O)[C@H]1CCC(C)=O` [SECOTANAPARTHOLIDE A] are the same in IC50: 6 µM for the first, 6 µM for the second.

`CC1=CC(=O)c2c(C)cc3oc(=O)c(C)c-3cc21` and `C=C1C(=O)O[C@H](C2=C(C)[C@@H](O)CC2=O)[C@H]1CCC(C)=O` [ISOSECOTANAPARTHOLIDE] are within 1.5-fold of each other in IC50: 16 µM for the first, 13 µM for the second.

Compared with `C=C1C(=O)O[C@H]2[C@H]1CC[C@@](C)(O)[C@]13O[C@H]1[C@H]1O[C@@]1(C)[C@H]23` [ARTECANIN], `C=C1C(=O)O[C@H]([C@@H]2C(=O)C=C[C@]2(C)O)[C@H]1CCC(C)=O` [SECOTANAPARTHOLIDE B] is 4.2-fold lower in IC50: 14 µM for the first, 3.3 µM for the second.
